Measurements taken from US12660819B2, “Herbicidal derivatives” (SYNGENTA CROP PROTECTION AG, priority 2020, dated 2026).

Columns and labels:
Format in all cases: in vivo
[1] = test system: Amaranthus retoflexus (AMARE); assay: Pre-emergence Test (glasshouse, percentage damage to the plant); conditions: 1000 g/ha unless otherwise stated, five-point scale
[2] = test system: Abutilon theophrasti (ABUTH); assay: as above; conditions: 1000 g/ha unless otherwise stated, five-point scale
Setaria faberi (SETFA) [3] = assay: as above; conditions: 1000 g/ha unless otherwise stated, five-point scale
[4] = test system: Echinochloa crus-galli (ECHCG); assay: as above; conditions: 1000 g/ha unless otherwise stated, five-point scale
[5] = test system: Amaranthus retoflexus (AMARE); assay: Post-emergence Test (glasshouse, percentage damage to the plant); conditions: post-emergence spray, 1000 g/ha unless otherwise stated, evaluated after 13 days
How it was run: (§1)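 Compound formulated in 50:50 acetone/water with 0.5% Tween 20 was diluted to an aqueous spray and applied at 1000 g/ha, unless otherwise stated, onto sown pots. Evaluation after 13 days gave percentage damage, banded into a 1–5 score.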

Setaria faberi (SETFA) [6] = assay: as above; conditions: post-emergence spray, 1000 g/ha unless otherwise stated, evaluated after 13 days
How it was run: (§2)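 After sowing in standard soil, pots were kept at 24/16 °C (day/night), 14 h light and 65% humidity. They were sprayed at 1000 g/ha unless otherwise stated, watered twice daily, and assessed for percentage damage at 13 days on a 1–5 scale.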

[7] = test system: Echinochloa crus-galli (ECHCG); assay: as above; conditions: post-emergence spray, 1000 g/ha unless otherwise stated, evaluated after 13 days
How it was run: as §1

[8] = test system: Ipomoea hederacea (IPOHE); assay: as above; conditions: post-emergence spray, 1000 g/ha unless otherwise stated, evaluated after 13 days
How it was run: as §2

Zea mays (ZEAMX) [9] = assay: as above; conditions: post-emergence spray, 1000 g/ha unless otherwise stated, evaluated after 13 days
How it was run: as §2

[10] = test system: Abutilon theophrasti (ABUTH); assay: as above; conditions: post-emergence spray, 1000 g/ha unless otherwise stated, evaluated after 13 days
How it was run: as §1

Zea mays (ZEAMX) [11] = assay: Pre-emergence Test (glasshouse, percentage damage to the plant); conditions: 1000 g/ha unless otherwise stated, five-point scale
[12] = test system: Ipomoea hederacea (IPOHE); assay: as above; conditions: 1000 g/ha unless otherwise stated, five-point scale

Row | Structure (SMILES) | percentage damage to the plant, AMARE [1] | percentage damage to the plant, ABUTH [2] | percentage damage to the plant, SETFA (Setaria faberi (SETFA) [3]) | percentage damage to the plant, ECHCG [4] | Post-emergence Test AMARE, percentage damage to the plant (five-point scale) [5] | Post-emergence Test SETFA, percentage damage to the plant (five-point scale) (Setaria faberi (SETFA) [6]) | Post-emergence Test ECHCG, percentage damage to the plant (five-point scale) [7] | Post-emergence Test IPOHE, percentage damage to the plant (five-point scale) [8] | Post-emergence Test ZEAMX, percentage damage to the plant (five-point scale) (Zea mays (ZEAMX) [9]) | Post-emergence Test ABUTH, percentage damage to the plant (five-point scale) [10] | percentage damage to the plant, ZEAMX (Zea mays (ZEAMX) [11]) | percentage damage to the plant, IPOHE [12]
1 | CCn1c(C)c(-c2cc(OC)cc(OC)c2)c(=O)c(C(=O)O)c1-c1ccc(Cl)c(Cl)c1 [Compound 70, 2-(3,4-dichlorophenyl)-5-(3,5-dimethoxyphenyl)-1-ethyl-6-methyl-4-oxo-pyridine-3-carboxylic acid] | 1 (1=0-20%) | 1 (1=0-20%) | 3 (3=41-60%) | 1 (1=0-20%) | 1 (1=0-20%) | 3 (3=41-60%) | 2 (2=21-40%) | 1 (1=0-20%) | 2 (2=21-40%) | 2 (2=21-40%) | 1 (1=0-20%) | 1 (1=0-20%)
2 | CCn1c(C)c(-c2cc(C)c(OC)c(C)c2)c(=O)c(C(=O)O)c1-c1ccc(Cl)c(Cl)c1 [Compound 71, 2-(3,4-dichlorophenyl)-1-ethyl-5-(4-methoxy-3,5-dimethyl-phenyl)-6-methyl-4-oxo-pyridine-3-carboxylic acid] | 2 (2=21-40%) | 1 (1=0-20%) | 2 (2=21-40%) | 1 (1=0-20%) | 1 (1=0-20%) | 1 (1=0-20%) | 1 (1=0-20%) | 1 (1=0-20%) | 1 (1=0-20%) | 2 (2=21-40%) | 1 (1=0-20%) | 1 (1=0-20%)
3 | CCNC(=O)c1cc(-c2c(C)n(CC)c(-c3ccc(Cl)c(Cl)c3)c(C(=O)O)c2=O)ccc1Cl [Compound 72, 5-[4-chloro-3-(ethylcarbamoyl)phenyl]-(3,4-dichlorophenyl)-1-ethyl-6-methyl-4-oxo-pyridine-3-carboxylic acid] | 1 (1=0-20%) | 1 (1=0-20%) | 1 (1=0-20%) | 1 (1=0-20%) | 1 (1=0-20%) | 1 (1=0-20%) | 1 (1=0-20%) | 1 (1=0-20%) | 1 (1=0-20%) | 1 (1=0-20%) | 1 (1=0-20%) | 1 (1=0-20%)
4 | CCn1c(C)c(-c2cc(F)c(F)c(F)c2)c(=O)c(C(=O)O)c1-c1ccc(Cl)c(Cl)c1 [Compound 73, 2-(3,4-dichlorophenyl)-1-ethyl-6-methyl-4-oxo-5-(3,4,5-trifluorophenyl)pyridine-3-carboxylic acid] | 1 (1=0-20%) | 2 (2=21-40%) | 4 (4=61-80%) | 2 (2=21-40%) | 2 (2=21-40%) | 4 (4=61-80%) | 3 (3=41-60%) | 3 (3=41-60%) | 2 (2=21-40%) | 3 (3=41-60%) | 1 (1=0-20%) | 2 (2=21-40%)
5 | CCn1c(C)c(-c2cccs2)c(=O)c(C(=O)O)c1-c1ccc(Cl)c(Cl)c1 [Compound 74, 2-(3,4-dichlorophenyl)-1-ethyl-6-methyl-4-oxo-5-(2-thienyl)pyridine-3-carboxylic acid] | 1 (1=0-20%) | 2 (2=21-40%) | 4 (4=61-80%) | 3 (3=41-60%) | 1 (1=0-20%) | 3 (3=41-60%) | 3 (3=41-60%) | 2 (2=21-40%) | 2 (2=21-40%) | 3 (3=41-60%) | 1 (1=0-20%) | 1 (1=0-20%)
6 | CCn1c(C)c(-c2cc(F)c(OC)c(Cl)c2)c(=O)c(C(=O)O)c1-c1ccc(Cl)c(Cl)c1 [Compound 75, 5-(3-chloro-5-fluoro-4-methoxy-phenyl)-2-(3,4-dichlorophenyl)-1-ethyl-6-methyl-4-oxo-pyridine-3-carboxylic acid] | 1 (1=0-20%) | 1 (1=0-20%) | 1 (1=0-20%) | 1 (1=0-20%) | 1 (1=0-20%) | 1 (1=0-20%) | 1 (1=0-20%) | 2 (2=21-40%) | 1 (1=0-20%) | 2 (2=21-40%) | 1 (1=0-20%) | 1 (1=0-20%)
7 | CCn1c(C)c(-c2ccc(C(F)F)cc2)c(=O)c(C(=O)O)c1-c1ccc(Cl)c(Cl)c1 [Compound 76, 2-(3,4-dichlorophenyl)-5-[4-(difluoromethyl)phenyl]-1-ethyl-6-methyl-4-oxo-pyridine-3-carboxylic acid] | 1 (1=0-20%) | 2 (2=21-40%) | 3 (3=41-60%) | 1 (1=0-20%) | 1 (1=0-20%) | 3 (3=41-60%) | 2 (2=21-40%) | 2 (2=21-40%) | 1 (1=0-20%) | 3 (3=41-60%) | 1 (1=0-20%) | 2 (2=21-40%)
8 | CCn1c(C)c(-c2cc(F)cc(C#N)c2)c(=O)c(C(=O)O)c1-c1ccc(Cl)c(Cl)c1 [Compound 78, 5-(3-cyano-5-fluoro-phenyl)-2-(3,4-dichlorophenyl)-1-ethyl-6-methyl-4-oxo-pyridine-3-carboxylic acid] | 2 (2=21-40%) | 1 (1=0-20%) | 4 (4=61-80%) | 3 (3=41-60%) | 1 (1=0-20%) | 3 (3=41-60%) | 2 (2=21-40%) | 1 (1=0-20%) | 1 (1=0-20%) | 2 (2=21-40%) | 1 (1=0-20%) | 2 (2=21-40%)
